Experimental data from ChEMBL document CHEMBL1148830, “Discovery and investigation of antiproliferative and apoptosis-inducing properties of new heterocyclic podophyllotoxin analogues accessible by a one-step multicomponent synthesis” (2007).
Activity calls are given as the source filed them. No cut-off for these calls is given here.

Key:
Jurkat [1] = assay: Antiproliferative activity against human Jurkat cells assessed as cell viability at 5 uM after 48 hrs by MTT assay; type: functional; conditions: read-out: Activity
[2] = Antiproliferative activity against human MCF7/AZ cells assessed as cell viability at 5 uM after 48 hrs by MTT assay relative to control; type: functional; conditions: read-out: Activity
Jurkat [3] = assay: Induction of apoptosis in Jurkat cells assessed as cell viability at 5 uM after 48 hrs by flow cytometry Annexin-V/propidium iodide assay; type: functional; conditions: Homo sapiens, read-out: Activity
HeLa [4] = assay: Growth inhibition of HeLa cells after 48 hrs by MTT assay; type: functional; conditions: Homo sapiens
HeLa [5] = assay: Antiproliferative activity against HeLa cells assessed as cell viability at 5 uM after 48 hrs by MTT assay relative to control; type: functional; conditions: Homo sapiens, read-out: Activity
Jurkat [6] = assay: Increase in caspase 3 activation in Jurkat cells at 5 uM; type: functional, Homo sapiens; conditions: for Activity: Homo sapiens
Jurkat [7] = assay: Induction of apoptosis in Jurkat cells after 24 hrs by flow cytometric Annexin-V/propidium iodide assay; type: functional, cell-based; conditions: Homo sapiens
Jurkat [8] = assay: Effect on apoptosis in Jurkat cells assessed as DNA laddering after 24 hrs; type: functional, cell-based; conditions: Homo sapiens
Lymphocyte = assay: Induction of apoptosis in human whole blood lymphocytes after 24 hrs by flow cytometric Annexin-V/propidium iodide assay; type: functional, cell-based
Jurkat [9] = assay: Effect on apoptosis in Jurkat cells assessed as cleavage of procaspase 3 to active enzyme at 5 uM; type: functional, cell-based; conditions: Homo sapiens
Jurkat [10] = assay: Effect on apoptosis in Jurkat cells assessed as cleavage of PARP at 5 uM; type: functional, cell-based; conditions: Homo sapiens
Jurkat [11] = assay: Effect on apoptosis in Jurkat cells assessed as cleavage of procaspase 3 to active enzyme at 1 uM; type: functional, cell-based; conditions: Homo sapiens
Jurkat [12] = assay: Effect on apoptosis in Jurkat cells assessed as cleavage of PARP at 1 uM; type: functional, cell-based; conditions: Homo sapiens
Jurkat [13] = assay: Increase in caspase 3 activation in Jurkat cells at 1 uM; type: functional, cell-based; conditions: Homo sapiens

Structure (SMILES) | viability at 5 µM (Jurkat [1]) [%] | viability at 5 µM [2] [%] | viability at 5 µM (Jurkat [3]) [%] | viability at 5 µM (HeLa [5]) [%] | further results
COc1cc(C2C3=C(COC3=O)Nc3cc4c(cc32)OCO4)cc(OC)c1OC (centres undefined) | 54 | 52 | 55 | 54 | GI50 (HeLa [4]): 6 µM
COc1cc(C2C3=C(COC3=O)Nc3[nH]nc(C)c32)cc([N+](=O)[O-])c1O (centres undefined) | 90 | 89 | 5 | 78 | 
Cc1n[nH]c2c1C(c1cccnc1)C1=C(COC1=O)N2 (centres undefined) | 88 | 96 | 11 | 69 | 
COc1cc(C2C3=C(COC3=O)Nc3[nH]nc(C)c32)cc(OC)c1OC (centres undefined) | 47 | 58 | 55 | 50 | Fold change (Jurkat [6]): 3; Activity (Jurkat [7]): Active; Activity (Jurkat [8]): Active; Activity (Lymphocyte): inactive; Activity (Jurkat [9]): Active; Activity (Jurkat [10]): Active; GI50 (HeLa [4]): 5 µM
Cc1n[nH]c2c1C(c1ccsc1)C1=C(COC1=O)N2 (centres undefined) | 82 | 100 | 6 | 98 | 
Cc1nc2ccccc2nc1C1C2=C(COC2=O)Nc2[nH]nc(C)c21 (centres undefined) | 97 | 100 | 11 | 72 | 
COc1cc2c(cc1OC)C(c1cc(OC)c(OC)c(OC)c1)C1=C(O)OCC1=N2 (centres undefined) | 35 | 58 | 49 | 53 | GI50 (HeLa [4]): 6 µM
Cc1n[nH]c2c1C(c1ccc(N(C)C)c(Br)c1)C1=C(COC1=O)N2 (centres undefined) | 34 | 59 | 41 | 55 | Fold change (Jurkat [6]): 3; Activity (Lymphocyte): inactive; GI50 (HeLa [4]): 6 µM
Cc1n[nH]c2c1C(c1c(C)nn(-c3ccccc3)c1Cl)C1=C(COC1=O)N2 (centres undefined) | 94 | 100 | 6 | 58 | 
CCOc1c(Br)cc(C2C3=C(COC3=O)Nc3[nH]nc(C)c32)cc1OC (centres undefined) | 28 | 49 | 49 | 52 | Fold change (Jurkat [6]): 3; Activity (Lymphocyte): inactive; GI50 (HeLa [4]): 5 µM
Cc1n[nH]c2c1C(c1ccc(Cl)c(Cl)c1)C1=C(COC1=O)N2 (centres undefined) | 71 | 56 | 33 | 88 | 
Cc1n[nH]c2c1C(c1cccs1)C1=C(COC1=O)N2 (centres undefined) | 74 | 98 | 18 | 82 | 
Cc1n[nH]c2c1C(c1ccccc1Br)C1=C(COC1=O)N2 (centres undefined) | 90 | 100 | 8 | 57 | 
Cc1n[nH]c2c1C(c1c(C)nc3sccn13)C1=C(COC1=O)N2 (centres undefined) | 85 | 100 | 7 | 84 | Activity (Jurkat [10]): inactive
COc1cc(C2C3=C(COC3=O)Nc3c2c(-c2ccc(Br)cc2)nn3-c2ccccc2)cc(OC)c1OC (centres undefined) | 99 | 90 | 2 | 73 | 
Cc1n[nH]c2c1C(c1ccc(Br)cc1)C1=C(COC1=O)N2 (centres undefined) | 90 | 92 | 10 | 62 | 
Cc1n[nH]c2c1C(c1ccc(OC(F)(F)F)cc1)C1=C(COC1=O)N2 (centres undefined) | 97 | 84 | 9 | 97 | 
COc1cc(C2C3=C(COC3=O)Nc3[nH]nc(-c4ccc(Br)cc4)c32)cc(OC)c1OC (centres undefined) | 78 | 98 | 5 | 67 | 
Cc1n[nH]c2c1C(c1ccccc1)C1=C(COC1=O)N2 (centres undefined) | 87 | 84 | 10 | 74 | 
COc1cc(C2C3=C(COC3=O)Nc3c2c(C)nn3-c2ccc(C)cc2)cc(OC)c1OC (centres undefined) | 77 | 71 | 23 | 77 | 

Structure (SMILES) | viability at 5 µM (Jurkat [1]) [%] | viability at 5 µM [2] [%] | viability at 5 µM (Jurkat [3]) [%] | viability at 5 µM (HeLa [5]) [%] | further results
Cc1n[nH]c2c1C(c1cc(Br)c(O)c(Br)c1)C1=C(COC1=O)N2 (centres undefined) | 58 | 60 | 53 | 58 | Fold change (Jurkat [6]): 3; Activity (Lymphocyte): inactive; GI50 (HeLa [4]): 8 µM
C=C(C)[C@@H]1CC=C(C2C3=C(COC3=O)Nc3[nH]nc(C)c32)CC1 (some centres undefined) | 89 | 91 | 14 | 95 | 
COc1cc2c(c(OC)c1OC)-c1ccc(OC)c(=O)cc1[C@@H](NC(C)=O)CC2 |  |  |  |  | Activity (Jurkat [6]): Active
Cc1n[nH]c2c1C(c1ccncc1)C1=C(COC1=O)N2 (centres undefined) | 92 | 100 | 4 | 94 | 
Cc1n[nH]c2c1C(c1cccc(F)c1)C1=C(COC1=O)N2 (centres undefined) | 84 | 76 | 28 | 99 | 
Cc1n[nH]c2c1C(c1ccccc1[N+](=O)[O-])C1=C(COC1=O)N2 (centres undefined) | 64 | 99 | 6 | 71 | 
COc1cc2c(c(OC)c1)C(c1cc(OC)c(OC)c(OC)c1)C1=C(COC1=O)N2 (centres undefined) | 55 | 43 | 55 | 55 | 
Cc1n[nH]c2c1C(c1cccc(Br)c1)C1=C(COC1=O)N2 (centres undefined) | 68 | 63 | 58 | 51 | Fold change (Jurkat [6]): 3; Activity (Jurkat [7]): Active; Activity (Lymphocyte): inactive; GI50 (HeLa [4]): 5 µM
Cc1n[nH]c2c1C(c1cccc(Cl)c1)C1=C(COC1=O)N2 (centres undefined) | 76 | 54 | 28 | 43 | Fold change (Jurkat [6]): 3; GI50 (HeLa [4]): 10 µM
COc1cc(C2C3=C(COC3=O)Nc3[nH]nc(C)c32)cc(Br)c1OC(C)=O (centres undefined) | 36 | 46 | 58 | 47 | Fold change (Jurkat [6]): 3; Activity (Lymphocyte): inactive; GI50 (HeLa [4]): 4 µM
COc1cc(C2C3=C(COC3=O)Nc3c2c(C)nn3C)cc(OC)c1OC (centres undefined) | 79 | 98 | 5 | 55 | 
COc1ccc(C2C3=C(COC3=O)Nc3[nH]nc(C)c32)cc1 (centres undefined) | 94 | 82 | 11 | 73 | 
COc1cc(C2C3=C(COC3=O)Nc3[nH]nc(C)c32)cc(Br)c1OC (centres undefined) | 29 | 47 | 56 | 16 | Fold change (Jurkat [6]): 3; Activity (Lymphocyte): inactive; GI50 (HeLa [4]): 0.75 µM
COc1cc(C2C3=C(COC3=O)Nc3c2c(C)nn3C(C)C)cc(OC)c1OC (centres undefined) | 77 | 99 | 4 | 83 | 
COc1ccc(C2C3=C(COC3=O)Nc3[nH]nc(C)c32)cc1OC (centres undefined) | 88 | 95 | 5 | 73 | 
CC[C@]1(O)C[C@@H]2CN(CCc3c([nH]c4ccccc34)[C@@](C(=O)OC)(c3cc4c(cc3OC)N(C)[C@H]3[C@@](O)(C(=O)OC)[C@H](OC(C)=O)[C@]5(CC)C=CCN6CC[C@]43[C@@H]65)C2)C1 |  |  |  |  | Activity (Jurkat [11]): Active; Activity (Jurkat [12]): Active; Activity (Jurkat [13]): Active
CSc1ccc(C2C3=C(COC3=O)Nc3[nH]nc(C)c32)cc1 (centres undefined) | 87 | 95 | 14 | 45 | 
COc1cc([C@@H]2c3cc4c(cc3[C@H](O)[C@H]3COC(=O)[C@H]23)OCO4)cc(OC)c1OC [PODOFILOX] | 18 | 55 | 54 | 19 | Activity (Jurkat [6]): Active; Activity (Jurkat [7]): Active; Activity (Lymphocyte): inactive; Activity (Jurkat [9]): Active; Activity (Jurkat [10]): Active; GI50 (HeLa [4]): 0.02 µM
Cc1n[nH]c2c1C(C)C1=C(COC1=O)N2 (centres undefined) | 78 | 97 | 5 | 70 | 
